Patent US11180474B2 (BRISTOL-MYERS SQUIBB COMPANY, priority 2016, dated 2021)

The molecules below were run against T1, human TLR9 (Homo sapiens, UniProt Q9NR96) (assay: TLR9 inhibition reporter assay (HEK-Blue cells, SEAP reporter, ODN2006 stimulation)). Conditions: HEK-Blue cells overexpressing human TLR9, ODN2006 5 nM.
T1 construct: host or cells: HEK-Blue cells
T1 sequence (Q9NR96 26-1032): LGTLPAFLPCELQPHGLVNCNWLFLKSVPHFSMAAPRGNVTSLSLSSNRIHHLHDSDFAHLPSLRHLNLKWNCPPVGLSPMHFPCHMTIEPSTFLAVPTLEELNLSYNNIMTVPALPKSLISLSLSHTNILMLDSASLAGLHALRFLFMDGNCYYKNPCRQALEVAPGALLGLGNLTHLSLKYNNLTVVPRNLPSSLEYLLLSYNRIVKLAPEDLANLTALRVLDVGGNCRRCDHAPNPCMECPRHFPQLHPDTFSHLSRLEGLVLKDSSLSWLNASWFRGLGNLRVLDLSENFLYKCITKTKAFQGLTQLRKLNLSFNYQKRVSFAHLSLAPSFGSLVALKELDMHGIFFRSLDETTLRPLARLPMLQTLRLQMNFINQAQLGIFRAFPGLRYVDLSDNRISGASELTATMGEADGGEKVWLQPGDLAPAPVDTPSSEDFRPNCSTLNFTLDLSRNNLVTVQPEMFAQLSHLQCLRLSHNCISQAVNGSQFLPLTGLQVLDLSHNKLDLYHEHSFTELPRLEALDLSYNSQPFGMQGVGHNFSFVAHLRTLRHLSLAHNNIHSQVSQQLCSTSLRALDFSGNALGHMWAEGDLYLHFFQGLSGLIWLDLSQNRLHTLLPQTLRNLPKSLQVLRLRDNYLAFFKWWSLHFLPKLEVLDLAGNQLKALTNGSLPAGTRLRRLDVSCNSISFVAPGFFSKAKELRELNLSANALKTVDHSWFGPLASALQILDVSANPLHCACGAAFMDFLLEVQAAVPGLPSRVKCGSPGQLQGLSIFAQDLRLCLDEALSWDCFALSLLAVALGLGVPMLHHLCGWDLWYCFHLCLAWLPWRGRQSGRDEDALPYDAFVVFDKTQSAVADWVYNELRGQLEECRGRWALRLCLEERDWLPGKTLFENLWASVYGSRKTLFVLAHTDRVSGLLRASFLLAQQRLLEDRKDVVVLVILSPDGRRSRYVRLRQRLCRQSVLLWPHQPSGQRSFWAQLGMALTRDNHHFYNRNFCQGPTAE
Assay type: cell-based
Outline: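 Dose–response from 0.05 nM to 50 μM was run in HEK-Blue human TLR7, TLR8 and TLR9 reporter cells. After 30 min at room temperature with compound, ligand was added (TLR7 gardiquimod 7.5 μM; TLR8 R848 15.9 μM; TLR9 ODN2006 5 nM) and SEAP measured next day, at 22 h.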

SMILES	IC50
CCc1c(-c2ccc(OC)c(OC)c2)[nH]c2ccc(C3CCN(C4CCN(Cc5cc(C)n(C)n5)CC4)CC3)cc12 [Example 144, 2-(3,4-dimethoxyphenyl)-5-(1′-((1,5-dimethyl-1H-pyrazol-3-yl)methyl)-[1,4′-bipiperidin]-4-yl)-3-ethyl-1H-indole]	495 nM
CCc1c(-c2ccc(OC)c(OC)c2)[nH]c2ccc(C3CCN(C4CCN(C(C)C)CC4)CC3)cc12 [Example 151, 2-(3,4-dimethoxyphenyl)-3-ethyl-5-(1′-isopropyl-[1,4′-bipiperidin]-4-yl)-1H-indole]	556 nM
CCc1c(-c2ccc(OC)c(OC)c2)[nH]c2ccc(C3CCN(C4CCN(C5CCCC5)CC4)CC3)cc12 [Example 152, 5-(1′-cyclopentyl-[1,4′-bipiperidin]-4-yl)-2-(3,4-dimethoxyphenyl)-3-ethyl-1H-indole]	233 nM
CCc1c(-c2ccc(OC)c(OC)c2)[nH]c2ccc(C3CCN(C4CCN(Cc5cnc(C)[nH]5)CC4)CC3)cc12 [Example 153, 2-(3,4-dimethoxyphenyl)-3-ethyl-5-(1′-((2-methyl-1H-imidazol-5-yl)methyl)-[1,4′-bipiperidin]-4-yl)-1H-indole]	547 nM
CCc1c(-c2ccc(OC)c(OC)c2)[nH]c2ccc(C3CCN(C(=O)CNCCO)CC3)cc12 [Example 159, 1-(4-(2-(3,4-dimethoxyphenyl)-3-ethyl-1H-indol-5-yl)piperidin-1-yl)-2-((2-hydroxyethyl)amino) ethan-1-one]	3380 nM
CCc1c(-c2ccc(OC)c(OC)c2)[nH]c2ccc(C3CCN(C(=O)CNCC#N)CC3)cc12 [Example 161, 2-((2-(4-(2-(3,4-dimethoxyphenyl)-3-ethyl-1H-indol-5-yl)piperidin-1-yl)-2-oxoethyl)amino)acetonitrile]	≥ 50000 nM
CCc1c(-c2ccc(OC)c(OC)c2)[nH]c2ccc(C3CCN(C(=O)CNC4CCC(N(C)C)CC4)CC3)cc12 (stereo not shown) [Example 162, 1-(4-(2-(3,4-dimethoxyphenyl)-3-ethyl-1H-indol-5-yl)piperidin-1-yl)-2-((4-(dimethylamino)cyclohexyl)amino)ethan-1-one]	402 nM
CCc1c(-c2ccc(OC)c(OC)c2)[nH]c2ccc(C3CCN(C(=O)CNc4nccs4)CC3)cc12 [Example 177, 1-(4-(2-(3,4-dimethoxyphenyl)-3-ethyl-1H-indol-5-yl)piperidin-1-yl)-2-(thiazol-2-ylamino)ethanone]	3360 nM
CCc1c(-c2ccc(OC)c(OC)c2)[nH]c2ccc(C3CCN(CC(C)C(F)(F)F)CC3)cc12 (stereo not shown) [Example 180, 2-(3,4-dimethoxyphenyl)-3-ethyl-5-(1-(3,3,3-trifluoro-2-methylpropyl)piperidin-4-yl)-1H-indole]	≥ 50000 nM
CCc1c(-c2ccc(OC)c(OC)c2)[nH]c2ccc(C3CCN(C(=O)CN(C)C)CC3)cc12 [Example 181, 1-(4-(2-(3,4-dimethoxyphenyl)-3-ethyl-1H-indol-5-yl)piperidin-1-yl)-2-(dimethylamino) ethanone]	2270 nM
CCc1c(-c2ccc(OC)c(OC)c2)[nH]c2ccc(C3CCN(C(=O)c4ccncc4)CC3)cc12 [Example 183, (4-(2-(3,4-dimethoxyphenyl)-3-ethyl-1H-indol-5-yl)piperidin-1-yl)(pyridin-4-yl) methanone]	10200 nM
CCc1c(-c2ccc(OC)c(OC)c2)[nH]c2ccc(C3CCN(C(=O)C4CCCNC4)CC3)cc12 (stereo not shown) [Example 184, (4-(2-(3,4-dimethoxyphenyl)-3-ethyl-1H-indol-5-yl)piperidin-1-yl)(piperidin-3-yl)methanone]	2070 nM

More lines, in order of falling IC50, values ahead:

IC50	SMILES
32400 nM	CCc1c(-c2ccc(OC)c(OC)c2)[nH]c2ccc(C3CCN(C(C)=O)CC3)cc12 [Example 185, 1-(4-(2-(3,4-dimethoxyphenyl)-3-ethyl-1H-indol-5-yl)piperidin-1-yl)ethan-1-one]
14100 nM	CCc1c(-c2ccc(OC)c(OC)c2)[nH]c2ccc(C3CCN(C(=O)C(C)(C)OC(C)=O)CC3)cc12 [Example 175, 1-(4-(2-(3,4-dimethoxyphenyl)-3-ethyl-1H-indol-5-yl)piperidin-1-yl)-2-methyl-1-oxopropan-2-yl acetate]
2340 nM	CCc1c(-c2ccc(OC)c(OC)c2)[nH]c2ccc(C3CCN(C4CCN(C)CC4)CC3)cc12 [Example 150, 2-(3,4-dimethoxyphenyl)-3-ethyl-5-(1′-methyl-[1,4′-bipiperidin]-4-yl)-1H-indole]
2240 nM	CCc1c(-c2ccc(OC)c(OC)c2)[nH]c2ccc(C3CCN(C(=O)CN4CC[C@@H](O)C4)CC3)cc12 [Example 173, (R)-1-(4-(2-(3,4-dimethoxyphenyl)-3-ethyl-1H-indol-5-yl)piperidin-1-yl)-2-(3-hydroxypyrrolidin-1-yl)ethan-1-one]
1280 nM	CCc1c(-c2ccc(OC)c(OC)c2)[nH]c2ccc(C3CCN(C(=O)C4(C)CCNCC4)CC3)cc12 [Example 187, (4-(2-(3,4-dimethoxyphenyl)-3-ethyl-1H-indol-5-yl)piperidin-1-yl)(4-methylpiperidin-4-yl)methanone]
991 nM	CCc1c(-c2ccc(OC)c(OC)c2)[nH]c2ccc(C3CCN(C(=O)C4CCNCC4)CC3)cc12 [Example 186, (4-(2-(3,4-dimethoxyphenyl)-3-ethyl-1H-indol-5-yl)piperidin-1-yl)(piperidin-4-yl) methanone]
870 nM	CCc1c(-c2ccc(OC)c(OC)c2)[nH]c2ccc(C3CCN(C(=O)CN4CCCC(C(=O)N(CC)CC)C4)CC3)cc12 (stereo not shown) [Example 168, 1-(2-(4-(2-(3,4-dimethoxyphenyl)-3-ethyl-1H-indol-5-yl)piperidin-1-yl)-2-oxoethyl)-N,N-diethylpiperidine-3-carboxamide]
730 nM	CCc1c(-c2ccc(OC)c(OC)c2)[nH]c2ccc(C3CCN(C4CCN(Cc5ccc(-c6ccccc6)o5)CC4)CC3)cc12 [Example 143, 2-(3,4-dimethoxyphenyl)-3-ethyl-5-(1′-((5-phenylfuran-2-yl)methyl)-[1,4′-bipiperidin]-4-yl)-1H-indole]
613 nM	CCc1c(-c2ccc(OC)c(OC)c2)[nH]c2cc(C)c(C3CCN(CCNC)CC3)cc12 [Example 188, 2-(4-(2-(3,4-dimethoxyphenyl)-3-ethyl-6-methyl-1H-indol-5-yl)piperidin-1-yl)-N-methylethanamine-di-trifluoroacetic acid]
552 nM	CCc1c(-c2ccc(OC)c(OC)c2)[nH]c2ccc(C3CCN(C4CCN(Cc5ccccc5)CC4)CC3)cc12 [Example 147, 5-(1′-benzyl-[1,4′-bipiperidin]-4-yl)-2-(3,4-dimethoxyphenyl)-3-ethyl-1H-indole]
492 nM	CCc1c(-c2ccc(OC)c(OC)c2)[nH]c2ccc(C3CCN(CCNC)CC3)cc12 [Example 155, 2-(4-(2-(3,4-dimethoxyphenyl)-3-ethyl-1H-indol-5-yl)piperidin-1-yl)-N-methylethanamine di-trifluoroacetic acid]
152 nM	CCc1c(-c2ccc(OC)c(OC)c2)[nH]c2ccc(C3CCN(C4CCN(CC)CC4)CC3)cc12 [Example 149, 2-(3,4-dimethoxyphenyl)-3-ethyl-5-(1′-ethyl-[1,4′-bipiperidin]-4-yl)-1H-indole]
133 nM	CCc1c(-c2ccc(OC)c(OC)c2)[nH]c2ccc(C3CCN(C4CCN(Cc5ccsc5)CC4)CC3)cc12 [Example 142, 2-(3,4-dimethoxyphenyl)-3-ethyl-5-(1′-(thiophen-3-ylmethyl)-[1,4′-bipiperidin]-4-yl)-1H-indole]
